From PMC6153520, “Proteasome inhibition and mechanism of resistance to a synthetic, library-based hexapeptide” (Investigational New Drugs, 2018)
Where a SMILES comes first, the peptide text is derived from it. [ ]: non-standard residue; d: D form. The star is where a group is joined. His(τ-Bzl) = N[C@@H](Cc1cn(Cc2ccccc2)cn1)C(=O)O; Nle = CCCC[C@H](N)C(=O)O; NHBn = c1ccc(CN*)cc1; Bn = c1ccc(C*)cc1; OtBu = CC(C)(C)O*; tBu = CC(C)(C)*

What was measured:
THP1/BTZ200 = test: Growth inhibition assay (72 h, trypan blue); type: cell-based, human; conditions: relative to IC50 in THP1/WT
Procedure: (§1) Human monocytic/macrophage THP1 cells (ATTC, Manassas, USA) were cultured in RPMI-1640 medium supplemented with 5% fetal calf serum, 20 mM HEPES, 2 mM glutamine and 100 μg/ml penicillin/ streptomycin at 5% CO2 and 37 °C. Cell cultures were seeded at a density of 3 × 10^5 cells/ml and refreshed twice weekly. […] Some specific experiments also included THP1/BTZ100 cells that were cultured in the absence of BTZ for 6 months (further designated as THP1/BTZ (−100) cells). Mouse thymoma EL4 and human multiple myeloma H929 cells were cultured in RPMI-1640 medium supplemented with 8% fetal calf serum and 100 μg/ml penicillin/streptomycin at 5% CO2 and 37 °C.
(§2) Evaluation of drug sensitivity was carried out as described before. Cells were seeded at an initial density of 1.25 × 10^5 cells/ml in individual wells of a 24-well plate containing up to 50 μl of drug solutions. Inhibition of cell growth was determined after 72 h of incubation at 37 °C by determining the number of viable cells […] using trypan blue exclusion. The drug concentration required to inhibit cell growth by 50% compared to untreated controls was defined as the IC50.

THP1/BTZ50 = test: Growth inhibition assay (72 h, trypan blue); type: cell-based, human; conditions: relative to IC50 in THP1/WT
Procedure: as §1, §2

THP1 cells = test: Growth inhibition with or without Ruthenium Red; type: cell-based, human; conditions: 72 h, with or without 25 μM Ruthenium Red
Procedure: as §2

[1] = system: Multidrug Resistance-associated Protein 1 (MRP1/ABCC1); design: method as in PMID 11289130; conditions: ref [32]; cited from earlier work
proteasome β5 subunit = test: Western blot, proteasome subunit expression; type: cell-based, human; conditions: 10 μM 4A6, 24 h; THP1/WT, THP1/BTZ100 and THP1/BTZ (−100); densitometry
Procedure: (§3) Western blot analysis to determine protein levels of (i) β1, β2 and β5 proteasome subunits and (ii) the accumulation of ubiquitinated proteins after treatment with 4A6 was performed essentially as described previously. Cells were harvested in the mid-log phase of growth and washed 3 times with ice-cold buffered saline pH 7.4. Total cell lysates of 5 × 10^6 cells were prepared by resuspension in 500 μl lysis buffer containing: 50 mM Tris-HCl (pH 7.6), 5 mM dithiotreitol, 20 μl PIC (Protease Inhibitor Cocktail; 1 tablet/ml H2O), 20% glycerol and 0.5% NP-40. The suspension was sonicated (MSE sonicator, amplitude 7, for 3 × 5 s with 20 s time intervals at 4 °C) and centrifuged in an Eppendorf micro centrifuge (5 min, 12,000 rpm, 4 °C). Protein content of the supernatant was determined by the Bio-Rad protein assay. 20–30 μg of total cell lysates were fractionated on a 10% polyacrylamide gel containing SDS and transferred onto a PVDF membrane. The membranes were pre-incubated overnight at 4 °C in blocking buffer (5% Bio-Rad Blocker in TBS-T; 10 mM Tris-HCl, pH 8.0, 0.15 M NaCl, 0.1% Tween-20) to prevent non-specific antibody binding. After blocking, the membranes were incubated for 1 h at room temperature with primary antibodies for proteasome subunit β1 (1:1000, PW8140), β2 (1:1000, PW8145) and β5 (1:1000, PW8895) or ubiquitin (1:1000, Santa-Cruz, SC-8017). An antibody to α-tubulin was used (1:1000, Santa Cruz, sc-8035) to check and normalize for any loading differences. After 3 washing steps with TBS-T, the membranes were incubated for 1 h with HRP-labelled donkey-anti-rabbit (1:6000, Amersham, UK) or goat-anti-mouse (1:6000, Dako, Glostrup, Denmark) as secondary antibody. Detection of antibody binding was followed by chemoluminescence using Supersignal (Pierce Biotechnology, Rockford, USA) according to the manufacturers’ instructions. […] The signal intensity was determined densitometrically using Quantity One software (Bio-Rad) and was expressed relative to the intensity of the α-tubulin signal.

proteasome β1 subunit = test: Western blot, proteasome subunit expression; type: cell-based, human; conditions: 0.1–10 μM, 24 h; THP1/WT, THP1/BTZ100, THP1/BTZ (−100)
Procedure: as §3

proteasome β2 subunit = test: Western blot, proteasome subunit expression; type: cell-based, human; conditions: 0.1–10 μM, 24 h; THP1/WT, THP1/BTZ100, THP1/BTZ (−100)
Procedure: as §3

THP1/WT cells [2] = test: Apoptosis assay (Annexin-V/7-AAD flow cytometry); type: cell-based, human; conditions: 24 h exposure
Procedure: Induction of apoptosis was analyzed by flow cytometry using APOPTEST™-FITC A700 (VPS Diagnostics, Hoeven, the Netherlands) according to the instructions of the manufacturer. In short, induction of apoptosis was determined after 24 h’ drug exposure. One million cells were harvested and washed 3 times with ice-cold PBS. The cell pellet was incubated for 30 min with 7-Amino-actinomycin D (7-AAD) on ice followed by incubation with Annexin-V according to the instructions of the manufacturer. Annexin-V (early apoptosis) and 7-AAD (late apoptosis) staining was measured by flow cytometry (Beckton & Dickinson, FACScalibur) and analysed using FCSexpress V3 software (Denovo software, Thornhill, Canada).

THP1/WT cells [3] = test: Western blot, accumulation of ubiquitinated proteins; type: cell-based, human; conditions: 24 h exposure
Procedure: as §3

[4] = system: bortezomib-resistant cells (THP1/BTZ200); test: as above; type: cell-based, human; conditions: 24 h, same concentrations as in THP1/WT
Procedure: as §3

Structure (SMILES): CCCC[C@H](NC(=O)[C@@H](NC(=O)[C@H](Cc1cn(Cc2ccccc2)cn1)NC(=O)[C@@H](NC(C)=O)[C@@H](C)OC(C)(C)C)[C@@H](C)OCc1ccccc1)C(=O)N[C@@H](CCC(=O)OC(C)(C)C)C(=O)NCC(=O)NCc1ccccc1 [4A6, Ac-Thr(tBu)-His(Bzl)-Thr(Bzl)-Nle-Glu(OtBu)-Gly-Bza] (Ac-T(tBu)[His(τ-Bzl)]T(Bn)[Nle]E(OtBu)G-NHBn)
- [Resistance Factor] THP1/BTZ200 (THP1/BTZ200): 287
- [Resistance Factor] THP1/BTZ50 (THP1/BTZ50): 44
- effect of Ruthenium Red on growth inhibitory activity (protection) (THP1 cells): no effect
- ability to reverse efflux pump MDR (ABCC1) [1]: lacked the ability to reverse efflux pump MDR
- substrate of MDR efflux transporter ABCC1 [1]: substrate
- increase in β5 subunit induction vs drug-free controls (proteasome β5 subunit): 3–5 fold
- effect on expression of the β1 proteasome subunit (proteasome β1 subunit): No significant effects
- effect on expression of the β2 proteasome subunit (proteasome β2 subunit): No significant effects
- induction of apoptosis (THP1/WT cells [2]): efficient induction of apoptosis
- accumulation of ubiquitinated proteins (THP1/WT cells [3]): marked accumulation of ubiquitinated proteins
- accumulation of ubiquitinated proteins [4]: did not provoke any accumulation of ubiquitinated proteins
